{
  "source": "patent US20030125322A1",
  "about": "“Crystalline form I of 2-methyl-4-(4-methyl-1-piperazinyl) 10H thieno [2,3-b][1,5]benzodiazepine” (SUN PARMACEUTICAL INDUSTRIES LIMITED, priority 2001, published 2003)",
  "key": {"[1]": {"test": "Storage stability of the crystalline form (colour, infrared spectrum, x-ray diffractogram)", "assay_type": "physicochemical", "settings": "for change in colour, Infrared spectrum and X-ray diffractogram on storage: accelerated conditions", "excerpt": "The crystalline Form I of 2-methyl-4-(4-methyl-1-piperazinyl)-10H-thieno[2,3-b][1,5]benzodiazepine of the present invention has a typical x-ray powder diffraction pattern as represented by d (interplanar spacing) values 9.9446, 8.5272, 8.1949, 6.8637, 6.3510, 5.4653, 4.8278, 4.7121, 4.5295, 4.2239, 4.0788, 3.8230, 3.7525, 3.6909, 3.4995, 3.3393, 3.1051, 2.9451, 2.8182, 2.7589, 2.5925, 2.3369, 2.0251, 1.9183; infrared absorbance bands at approximately 1456, 1365, 905, 757, 662 & 604 cm^−1 and a stable colour."}, "[2]": {"settings": "cited from earlier work; for colour stability on standing / storage: prior-art material as reported ('382 process Form I; '541 Form II)"}},
  "note": "“Also recorded” adds a separate entry of the source.",
  "data": [
    {"smiles": "Cc1cc2c(s1)Nc1ccccc1N=C2N1CCN(C)CC1", "note": "[Form I, 2-methyl-4-(4-methyl-1-piperazinyl)-10H-thieno[2,3-b][1,5]benzodiazepine]", "values": [
      {"measurement": "change in colour, Infrared spectrum and X-ray diffractogram on storage", "setting": "[1]; 40° C. and 75% relative humidity for one month", "value": "no changes in colour, infra-red spectrum and x-ray diffractogram"},
      {"measurement": "change in colour, Infrared spectrum and X-ray diffractogram on storage", "setting": "[1]; 40° C. and 75% relative humidity for one month, listed as Example 2", "value": "No change in colour, Infrared spectrum (KBr) and X-ray diffractogram"},
      {"measurement": "change in colour, Infrared spectrum and X-ray diffractogram on storage", "setting": "[1]; 75-80° C. for 25 days", "value": "no changes in colour, infra-red spectrum and x-ray diffractogram"},
      {"measurement": "change in colour, Infrared spectrum and X-ray diffractogram on storage", "setting": "[1]; 75-80° C. for 25 days, listed as Example 2", "value": "No change in colour, Infrared spectrum (KBr) and X-ray diffractogram"},
      {"measurement": "change in colour, infrared spectrum and x-ray diffractogram on storage", "setting": "[1]; ambient conditions of storage, about 15° C. to 35° C. and about 40% to 90% RH", "value": "no change in colour, infrared spectrum and x-ray diffractogram"},
      {"measurement": "change in colour, Infrared spectrum (KBr) and X-ray diffractogram on storage", "setting": "[1]; ambient conditions of storage, room temperature for one month", "value": "No change in colour, Infrared spectrum (KBr) and X-ray diffractogram"},
      {"measurement": "stability of crystal form", "setting": "[2]; Form I obtained by the '382 process, as reported", "value": "metastable"},
      {"measurement": "colour stability on standing / storage", "setting": "[2]", "value": "colour changes upon storage and exposure to air; also recorded: change its colour on standing"}
    ]},
    {"smiles": "Cc1cc2c(s1)Nc1ccccc1N=C2N1CCN(C)CC1", "note": "[Form II, olanzapine, reference compound]", "values": [
      {"measurement": "colour stability on standing / storage", "setting": "[2]", "value": "satisfactory colour stability"}
    ]}
  ]
}
